Series [1] relates to C57BL/6 mice given 3% DSS (acute colitis). As to the kind of experiment: DSS-induced acute colitis model. As to conditions: 3% DSS for 6 days, oral gavage. The format is in vivo. An excerpt: We examined whether oral administration of inulin gel loaded with an immune tolerizing drug can exert therapeutic efficacy against colitis. Mice were given 3% DSS in drinking water for 6 days to induce acute colitis. Starting day 0, mice were also orally gavaged with either PBS, an Ahr ligand, indole-3-aldehyde (IALD), or inulin gel formulated with IALD (inulin gel + IALD) (FIG. 5A).
Method: Six-week-old female C57BL/6 mice were acclimatized for 2 weeks before the start of the study. To induce colitis, mice were given 3% DSS (40 kDa; Alfa Aesar) supplemented in the drinking water for 6 days, followed by giving normal water. Inulin gel + IALD, IALD or PBS was orally gavaged into mice on predetermined days. The inulin gel + IALD was prepared by dissolving 300 mg of inulin from chicory (Sigma-Aldrich) in 0.9 ml deionized water and 0.1 ml IALD solution (50 mg/mL, DMSO). The inulin solution was thoroughly mixed with IALD solution by vortex and was heated to 70° C. for 5 min. The formulation was kept at room temperature for 12 h for gelation. The IALD was prepared similarly without adding the inulin. Bodyweight were measured daily over the experimental period. On day 9, mice were sacrificed, and the entire colon was excised. Colon length and the cecum weight was measured.

For series [2], the system named is BABL/c mice sensitized with OVA/Alum (OVA allergy). The series is classed as in vivo. Particulars: after the 3rd OVA challenge; escalated dose OIT. Here is the method:
To simulate the widely used therapeutic plan in clinic, we next provided the escalated dose of OVA in OIT treatment (FIG. 2a).
Preparation and characterization of inulin gel, PE or OVA loaded inulin gel. For OVA-related study, 495 mg of inulin from chicory (Sigma-Aldrich) was dissolved in 1.35 mL PBS and heated for 5 min. OVA (Sigma-Aldrich) was added right after cool-down of inulin. For PE-related study, 300 mg of inulin from chicory (Sigma-Aldrich) was dissolved in 0.9 mL deionized water, after heating for 5 min, 8 mg of PE was added right after cool-down. Samples were kept at 4° C. for 24 h. […] The content of protein in peanut extraction (around 20%) was determined by BCA assay.
In vivo oral sensitization, immunotherapy, and challenge. […] Body weight before all times of i.g. challenge were recorded, while the body temperature in the last time of i.g. challenge was measured. […] On day 73, mice were i.p. injected with 125 µg PE and the body temperature was recorded at preset times via rectal temperature probe.
Assessment of hypersensitivity reactions and diarrhea. Anaphylactic symptoms were evaluated between 30 to 50 minutes after i.p. challenge of PE (125 µg/dose) or i.g. challenge of OVA (50 mg/dose). […] For OVA study, mice with profuse liquid stool up to 1 h after i.g. challenge were recorded as diarrhea-positive animals. […]
Intestinal mast cell quantification. […]

The text below walks through data of patent US20230346826A1, “COMPOSITIONS AND METHODS FOR TREATING AND/OR PREVENTING AUTOIMMUNE DISORDERS” (The Regents of the University of Michigan, priority 2020, published 2023).

Turning to `O=Cc1c[nH]c2ccccc12` [IALD, indole-3-aldehyde], the bodyweight loss result in series [1] (daily bodyweight for 9 d) is given as “significant bodyweight loss”. Further, the “shortening of the colon length” value in series [1] (day 9) is listed as “shortening of the colon length”.

B1: OVA: albumin (OVA) protein, unformulated allergen given orally as OIT comparator (protein, UniProt P01012 2-386, looked up)
Ovalbumin: GSIGAASMEFCFDVFKELKVHHANENIFYCPIAIMSALAMVYLGAKDSTRTQINKVVRFDKLPGFGDSIEAQCGTSVNVHSSLRDILNQITKPNDVYSFSLASRLYAEERYPILPEYLQCVKELYRGGLEPINFQTAADQARELINSWVESQTNGIIRNVLQPSSVDSQTAMVLVNAIVFKGLWEKAFKDEDTQAMPFRVTEQESKPVQMMYQIGLFRVASMASEKMKILELPFASGTMSMLVLLPDEVSGLEQLESIINFEKLTEWTSSNVMEERKIKVYLPRMKMEEKYNLTSVLMAMGITDVFSSSANLSGISSAESLKISQAVHAAHAEINEAGREVVGSAEAGVDAASVSEEFRADHPFLFCIKHIATNAVLFFGRCVSP
Take B1: in series [2], the “death after OVA challenge” value is “Some mice in the OVA group died”.
